Results from patent US20160151408A1, “NOVEL THERAPY FOR MULTIPLE SCLEROSIS USING VITAMIN D AND GUT BACTERIA” (California Institute of Technology, priority 2012, published 2016).

Experiments:
EAE = conditions: refs [6,8], [31,32]; cited from earlier work
CD4+Foxp3+ T cells = assay: Mouse DC / CD4+ T cell co-culture, Foxp3+ TREG induction; assay type: cell-based
Description: (§1) FIG. 5, panels A-C. Graphs and plots showing vitamin D augments the ability of PSA to promote TREGS. (FIG. 5, panel A) Mouse BMDCs were stimulated with PSA (or PBS), and Cyp27b1 transcript levels were measured by qRT-PCR. PSA induces the expression of Cyp27b1 from WT, but not TLR2−/− DCs. (FIG. 5, panel B) Mouse DCs were treated with PSA, washed and co-cultured with naïve CD4+ T cells. After 4 days, PSA increased Foxp3+TREGS (see % in red box). The vitamin D metabolite 25D augmented PSA-induced TREGS. (FIG. 5, panel C) Human monocytes were treated with PSA or vehicle, washed and co-cultured with CD4+ T cells from PBMCs of the same donor. The MR for Foxp3 among CD4+CD25+ T cells is shown, with or without TGFβ.
(§2) Next tested was whether vitamin D enhanced the ability of PSA to induce Foxp3+ TREG cells in vitro. BMDCs treated with PSA or PBS, with or without 25D, were incubated with CD4+ T cells from the spleens of mice. […] The Hewison group has described […] expression of CYP27B1 in human DCs, and has shown the effects of vitamin D on human TREG development in vitro [11]. However, the ability of PSA to induce human Foxp3+ TREG cells has not been reported. […] These studies further link PSA-induced TREGS to the vitamin D pathway. Thus, PSA and vitamin D may promote human TREG cells.

[1] = tested on: Foxp3 among CD4+CD25+ T cells; assay: Human monocyte / CD4+ T cell co-culture, Foxp3 expression; assay type: cell-based
Description: as §1, §2

VDR = VDR mRNA levels in colonic tissue of germ-free mice; conditions: oral gavage of GF animals
colitis = conditions: refs [4,5,22]; cited from earlier work
[2] = tested on: experimental autoimmune encephalomyelitis (EAE); assay: EAE clinical scores in mice on normal or vitamin D-deficient diet; assay type: in vivo, C57BL/6 mice
Description: FIG. 2, panels A-D. Graphs showing germ-free (GF) mice are attenuated in EAE. Female C57B1/6 mice were immunized subcutaneously (s.c.) with 150 μg MOG35-55 peptide with 200 μg of Complete Freund's adjuvant (CFA). On the same day and 2 days later, mice were injected intraperitoneally (i.p.) with 150 ng/mouse of pertussis toxin. (FIG. 2, panel A) Clinical EAE scores of SPF (dark symbols) and GF (light symbols). Data are representative of three independent experiments. (FIG. 2, panel B) Proportions of SPF and GF mice that develop various degrees of EAE, as assessed by clinical score. Results are combined from 4 experiments, with a total of 20 for SPF and 22 for GF mice. (FIG. 2, panel C) IFNγ and IL-17A cytokine ELISA analysis of cells harvested from draining lymph nodes of SPF and GF mice 8 days after immunization with MOG/CFA and cultured for 3 days in vitro with MOG peptide. (FIG. 2, panel D) CD4+CD25+Foxp3+ T cells at day 15 post-immunization. Cells were cultured for 3 days with MOG peptide, and analyzed by flow cytometry. Data from Lee et al., PANS, 2011 [2].
FIG. 6. […]
To asses EAE in mice, mice can be evaluated daily for signs of disease. The clinical course of the EAE can be scored according to the severity as follows: 0=no obvious signs of disease, 0.5=partial tail weakness (cannot raise tail against gravity), 1=limp tail, 1.5=limp tail and hindlimb weakness, 2=limp tail and impairment in righting reflex, 2.5=limp tail and hindlimb paresis (as determined by gait abnormality), 3=bilateral hindlimb paralysis, 3.5=bilateral hindlimb paralysis and forelimb paresis (as determined by in ability of the mouse to strongly grasp cage bars with the fore paws when placed on top), 4=moribund, 5=dead. […] Reduced symptoms of EAE can be evaluated by comparing clinical scores.
PSA protects mice from EAE [8]; however, it is unknown whether PSA protection requires vitamin D. To address whether PSA may serve as a viable therapy for vitamin D deficient MS patients, mice on vitamin D sufficient and deficient diets were raised, EAE was induced, and PSA's protective effects were assessed.

Cyp27b1 [3] = assay: Colonic Cyp27b1 mRNA by qRT-PCR in mice; conditions: mice on vitamin D deficient diet for 6 weeks, fed PSA for 2 weeks
Cyp27b1 [4] = assay: Cyp27b1 transcript levels in PSA-stimulated BMDCs (qRT-PCR); assay type: cell-based, Mouse
Description: as §1
As described, the ability of PSA to protect against colitis & EAE in mice involves Foxp3+ TREGS [8,48]. The inventors recognize that vitamin D may play a pivotal role in microbial-induced TREGS, given the ability of 1,25D to promote TREG generation and the novel findings that PSA induces the vitamin D-system. First, the cell type that is responsible for PSA-dependent conversion of 25D to active 1,25D was made. The inventors have shown that PSA activates DCs, which prime TREG responses.

Question: With `C=C1/C(=C\C=C2/CCC[C@]3(C)[C@@H]([C@H](C)CCCC(C)(C)O)CC[C@@H]23)C[C@@H](O)C[C@@H]1O` [1,25D, 1,25-dihydroxyvitamin D3, reference compound] as the molecule, how does the “EAE disease (literature)” value (EAE) read?
Answer: Its value is “protected from disease”.

Question: For `C=C1CC[C@H](O)C/C1=C/C=C1\CCC[C@]2(C)[C@@H]([C@H](C)CCCC(C)(C)O)CC[C@@H]12` [25D, 25-hydroxyvitamin-D3, reference compound], which “PSA-induced CD4+Foxp3+ T cells, effect of co-treatment” value (CD4+Foxp3+ T cells; BMDCs treated with PSA with 25D) is on record?
Answer: The value was “enhanced by co-treatment with 25D”.

Question: Which “PSA-mediated TREG cells, effect of added TGFβ” value ([1]; with TGFβ) does the source give for TGFβ [reference compound] here?
Answer: The value was “does not further enhance PSA-mediated TREG cells”.

Question: For polysaccharide A [PSA], which “expression of VDR in the colon” value (VDR) is on record?
Answer: Its value is “increases expression of VDR”.

Question: What about the “colitis (literature)” value (colitis) of the same molecule?
Answer: Its value is “prevents and treats colitis in mice”.

Question: And the “EAE disease (literature)” value (EAE)?
Answer: Its value is “ameliorates and treats EAE”.

Question: What about the “Foxp3 expression in human TREGS” value ([1]; monocytes treated with PSA, co-cultured with CD4+ T cells from PBMCs of the same donor) of the same molecule?
Answer: Its value is “promotes Foxp3 expression in human TREGS in vitro”.

Question: And the “interaction of PSA with vitamin D in EAE protection” value ([2]; PSA groups on sufficient versus deficient diet)?
Answer: The value was “synergizes with vitamin D during protection from EAE”.

Question: And the “EAE clinical score at the peak of disease” value ([2]; day 14, vitamin D sufficient and deficient diets, PSA 100 μg/dose orally 3×/week)?
Answer: Its value is “protected from EAE”.

Question: What about the “EAE clinical score during the remission phase” value ([2]; day 20-35, vitamin D sufficient diet versus deficient, PSA 100 μg/dose orally 3×/week) of the same molecule?
Answer: Its value is “attenuated in disease during the remission phase if they were fed vitamin D sufficient diets”.

Question: And the “proportions of CD4+Foxp3+ T cells in culture” value (CD4+Foxp3+ T cells; BMDCs treated with PSA, co-cultured with CD4+ T cells, 4 days)?
Answer: Its value is “increases the proportions of CD4+Foxp3+ T cells in culture”.

Question: What about the “colonic Cyp27b1 expression” value (Cyp27b1 [3]) of the same molecule?
Answer: Its value is “induces increased colonic Cyp27b1”.

Question: What about the “Cyp27b1 expression from BMDCs” value (Cyp27b1 [4]; TLR2−/− DCs) of the same molecule?
Answer: Its value is “did not respond to PSA”.

Question: What about the “Cyp27b1 expression from BMDCs” value (Cyp27b1 [4]; WT bone marrow-derived dendritic cells) of the same molecule?
Answer: The value was “induces Cyp27b1 expression”.
